Reference: patent publication US20150352111A1, “Therapeutic Indications of Kinase Inhibitors” (Pulmokine, Inc., priority 2013, published 2015)
“And” between values parts separate entries of the source, which are not always exact repeats. Equal entries are not always repeated. “Also recorded” adds a separate entry of the source. Marks after values point to notes of the source that are not given here.

How the values were obtained:
[1] = Pharmacokinetic study, IV vs inhalation, lung and plasma; assay type: in vivo, rat; settings: for AUC: rat
Protocol: PK10453 was administered intravenously or by inhalation to animals, which were then euthanized at time 0, 10, 20, and 60 minutes (n=3 each time point). Blood samples were taken by cardiac puncture, and the lungs excised. The lungs were homogenized and PK10453 extracted with a 1:3 mixture of acetonitrile:methanol. Similarly, plasma was extracted with a 1:3 mixture of acetonitrile:methanol. Drug was assayed by LC MS/MS (PharmOptima Inc., Portage Mich.). First order exponential curves were fit to the data with Excel. The AUC was determined with the trapezoidal method of integration.
For the pharmacokinetic study, the concentration of PK10453 in lung when administered by inhalation was compared to the concentration achieved with IV administration. As described in Morén “Aerosols in medicine: principles, diagnosis, and therapy.” Amsterdam; New York: Elsevier. xx, 429 (1993) and Phalen et al., “Inhalation exposure methodology.” Environ Health Perspect 56:23-34 (1984)), it is possible to estimate the pharmacokinetic advantage of inhalation relative to intravenous administration, Rd, by comparing the areas under the curve (AUC) of a plot of the drug concentration as a function of time following respiratory and intravenous (IV) administration:
Rd=[(AUClung/AUCplasma)respiratory]/[(AUClung/AUCplasma)IV]

rat MCT+PN model of PAH = test: Rat MCT+PN model efficacy: PV loops, RV hypertrophy; assay type: in vivo; settings: for HR / EF / ESP / CO / EDP / EDV / ESV / SV / SW: MCT+PN, mean, n=4; for EF / ESP: RV
Protocol: In a separate cohort of animals, the MCT+PN model was developed as described above, and PK10453 was then administered for 4 minutes or 8 minutes three times a day to the drug treated group. The vehicle control group underwent 4 minute exposures three times a day. Pressure Volume (PV) loops were obtained with an admittance system (Scisense, Inc.) after 14 days of treatment, while rats were under general anesthesia with isoflurane and 100% FiO2.
PV loop study. The RV end systolic pressure (ESP) was lower and the RV ejection fraction (EF) was higher in both the D4 and D8 treatment groups compared to vehicle control. Cardiac output in the D8 group was increased compared to the Vehicle group. The study animals underwent left pneumonectomy followed 7 days later by MCT 60 mg/kg IP. Two weeks after MCT administration, PK10453 or vehicle were given by inhalation three times a day for two weeks. PV loops were acquired at the end of this period. With respect to Table 3: V=vehicle; D4=4 minute inhalation PK10453; D8=8 minute inhalation PK10453; n=4 each group; *p<0.001; **p≦0.01; §p<0.05 vs. V.

[2] = Two chamber plethysmography, rat MCT+PN model; assay type: in vivo; settings: for TV / MV: MCT+PN, mean
Protocol: Plethysmography was performed with an EMKA dual chamber plethysmograph and IOX software. Parameters measured included breathing frequency, tidal volume, minute ventilation, peak inspiratory and expiratory flow, and airway resistance (SRaw). Animals were acclimatized to the plethysmograph for three days prior to first data acquisition. Measurements were made prior to the first dose of drug and at the study's end.

For `COc1cc(-c2cncc(N[C@@H](C)c3cccc(NC(=O)c4cncc(C)c4)c3)n2)ccc1O` [PK10453, (S)—N-(3-(1-((6-(4-hydroxy-3-methoxyphenyl)pyrazin-2yl)amino)ethyl)phenyl)-5-methylnicotinamide], the “A of Y = AEXP(-bX)” value ([1]; Lung (INH)) was 2498 ng/g lung, the “b of Y = AEXP(-bX)” value ([1]; Lung (INH)) was 0.03 min⁻¹ and the “A of Y = AEXP(-bX)” value ([1]; Lung (IV)) was 440 ng/g lung. For the same compound, the “b of Y = AEXP(-bX)” value ([1]; Lung (IV)) was 0.06 min⁻¹, the “A of Y = AEXP(-bX)” value ([1]; Plasma (INH)) was 132.7 ng/g lung and the “b of Y = AEXP(-bX)” value ([1]; Plasma (INH)) was 0.07 min⁻¹. For the same compound, the “A of Y = AEXP(-bX)” value ([1]; Plasma (IV)) was 1260 ng/g lung, the “b of Y = AEXP(-bX)” value ([1]; Plasma (IV)) was 0.07 min⁻¹ and the “Rd, pharmacokinetic advantage of inhalation relative to IV” value ([1]; [(AUClung/AUCplasma)respiratory]/[(AUClung/AUCplasma)IV]) was 44.6 fold and 45 fold and 44.58 fold. For the same compound, the AUC ([1]; inhaled, Plasma (INH)) was 65.5 ng·h/mL, the AUC ([1]; Plasma (IV)) was 617 ng·h/mL and the RVSP (rat MCT+PN model of PAH; D4 MCT+PN group (n=4)) was 43.2±6.1 mm Hg. For the same compound, the RVSP (rat MCT+PN model of PAH; D8 MCT+PN group (n=4)) was 38.4±1.4 mm Hg, the HR (rat MCT+PN model of PAH; D4, 4 minute inhalation 3x/day, two weeks) was 288 bpm and the EF (rat MCT+PN model of PAH; D4) was 65.4**. The ESP (rat MCT+PN model of PAH; D4) was 43.20* mm Hg, the CO (rat MCT+PN model of PAH; D4) was 77.59 mL/min and the EDP (rat MCT+PN model of PAH; D4) was 2.62§ mm Hg. For the same compound, the EDV (rat MCT+PN model of PAH; D4) was 408.95 µL, the ESV (rat MCT+PN model of PAH; D4) was 144.14 µL and the SV (rat MCT+PN model of PAH; D4) was 264.81 µL. The SW (rat MCT+PN model of PAH; D4) was 9818, the HR (rat MCT+PN model of PAH; D8, 8 minute inhalation 3x/day, two weeks) was 315 bpm and the EF (rat MCT+PN model of PAH; D8) was 67.1**. For the same compound, the ESP (rat MCT+PN model of PAH; D8) was 38.44* mm Hg, the CO (rat MCT+PN model of PAH; D8) was 105.1** ml/min and the EDP (rat MCT+PN model of PAH; D8) was 4.87 mm Hg. For the same compound, the EDV (rat MCT+PN model of PAH; D8) was 488.68 µL, the ESV (rat MCT+PN model of PAH; D8) was 155.40 µL and the SV (rat MCT+PN model of PAH; D8) was 333.28** μl. The SW (rat MCT+PN model of PAH; D8) was 5481, the RV hypertrophy (rat MCT+PN model of PAH; rat MCT+PN, inhaled, two weeks) was “significant decrease” and the TV ([2]; D4, Day1, prior to first dose) was 1.00 mL. The MV ([2]; D4, Day15) was 176.12§ ml/min, the TV ([2]; D4, Day15) was 0.85 mL and the TV ([2]; D8, Day1, prior to first dose) was 0.74 mL. For the same compound, the MV ([2]; D8, Day15) was 128.49 mL/min, the TV ([2]; D8, Day15) was 0.63 mL and the “effect on lung function” value ([2]; inhaled, 2 wk administration course) was “did not appear to adversely affect; also recorded: no adverse effect”.
